Laboratory results reported in patent US20230241071A1, “COMBINATION TREATMENT OF LIVER DISORDERS” (Terns Pharmaceuticals, Inc., priority 2021, published 2023).

Tests used:
[1] = system: SHBG, Apo B and serum lipids; assay: Single-ascending dose trial of Compound 2: serum PD markers; type: in vivo, human; set-up: LDL-c change from baseline / HDL-c change from baseline / TC change from baseline / Apo B change from baseline: unit not given here
Experimental: Urine samples for Compound 2 concentration and PK sampling were collected pre-dose and at the following timepoints: 0-6 hours, 6-12 hours, 12-24 hours, and 24-48 hours. PK parameters were estimated via noncompartmental methods using Phoenix® WinNonlin® (Certara, LP, Princeton, N.J.). Concentrations of serum pharmacodynamic (PD) biomarkers apolipoprotein B (Apo B) and sex hormone binding globulin (SHBG) were measured using an immunoassay and serum lipids were determined using spectrophotometry.
PD sampling was performed pre-dose, and 48 hours and 72 hours post-dose. Percent change from baseline for PD markers were calculated using an ANCOVA model with percent change from baseline as dependent variable, treatment group as fixed effect, and baseline as covariate. Analyses used observed data only without imputation for missing data.

[2] = system: SD rats fed a high cholesterol diet; assay: Rat hypercholesterolemic model; type: in vivo; details: single IP dose 0.3 to 30 mpk, 24 h after injection
Experimental: SD rats were fed a high cholesterol diet for 2 weeks, increasing the serum cholesterol levels ˜4-fold over that time. Single doses of Compound 2 from 0.3 to 30 mpk or a single 30 mpk dose of MGL-3196 were injected IP and serum was analyzed for total serum cholesterol and triglycerides 24 h after the injection.

OATP1B1 = biological target: T1, OATP1B1 (Homo sapiens, UniProt Q9Y6L6); assay: In vitro transporter inhibition, OATP1B1; type: in vitro ADME
T1 sequence (Q9Y6L6 1-691): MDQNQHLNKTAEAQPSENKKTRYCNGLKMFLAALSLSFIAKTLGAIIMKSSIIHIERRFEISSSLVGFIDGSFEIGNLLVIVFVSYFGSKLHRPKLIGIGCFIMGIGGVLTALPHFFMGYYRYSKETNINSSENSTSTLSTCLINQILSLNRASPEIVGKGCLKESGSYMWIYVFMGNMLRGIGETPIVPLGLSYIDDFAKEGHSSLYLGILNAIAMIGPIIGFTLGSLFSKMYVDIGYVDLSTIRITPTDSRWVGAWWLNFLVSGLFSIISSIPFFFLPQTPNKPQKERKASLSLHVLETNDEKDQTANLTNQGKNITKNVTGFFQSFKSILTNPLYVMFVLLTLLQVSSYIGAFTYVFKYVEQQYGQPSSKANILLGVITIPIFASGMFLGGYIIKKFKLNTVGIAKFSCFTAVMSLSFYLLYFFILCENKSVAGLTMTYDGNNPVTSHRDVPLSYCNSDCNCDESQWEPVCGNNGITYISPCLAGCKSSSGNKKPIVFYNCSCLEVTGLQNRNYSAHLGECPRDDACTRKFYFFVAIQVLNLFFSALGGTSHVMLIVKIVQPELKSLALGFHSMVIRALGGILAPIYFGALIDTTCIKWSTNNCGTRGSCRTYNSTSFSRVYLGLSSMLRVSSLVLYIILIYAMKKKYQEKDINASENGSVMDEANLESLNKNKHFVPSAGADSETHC

P-glycoprotein (P-gp) = P-glycoprotein (P-gp) (Homo sapiens, UniProt P08183); type: in vitro ADME
SSAO = biological target: T2, SSAO (Homo sapiens, UniProt Q16853); assay: Plasma SSAO activity and methylamine, multiple doses of Compound 1; type: in vivo
T2 construct: from tissue; host or cells: human plasma from dosed participants
T2 sequence (Q16853 29-763 limits assumed): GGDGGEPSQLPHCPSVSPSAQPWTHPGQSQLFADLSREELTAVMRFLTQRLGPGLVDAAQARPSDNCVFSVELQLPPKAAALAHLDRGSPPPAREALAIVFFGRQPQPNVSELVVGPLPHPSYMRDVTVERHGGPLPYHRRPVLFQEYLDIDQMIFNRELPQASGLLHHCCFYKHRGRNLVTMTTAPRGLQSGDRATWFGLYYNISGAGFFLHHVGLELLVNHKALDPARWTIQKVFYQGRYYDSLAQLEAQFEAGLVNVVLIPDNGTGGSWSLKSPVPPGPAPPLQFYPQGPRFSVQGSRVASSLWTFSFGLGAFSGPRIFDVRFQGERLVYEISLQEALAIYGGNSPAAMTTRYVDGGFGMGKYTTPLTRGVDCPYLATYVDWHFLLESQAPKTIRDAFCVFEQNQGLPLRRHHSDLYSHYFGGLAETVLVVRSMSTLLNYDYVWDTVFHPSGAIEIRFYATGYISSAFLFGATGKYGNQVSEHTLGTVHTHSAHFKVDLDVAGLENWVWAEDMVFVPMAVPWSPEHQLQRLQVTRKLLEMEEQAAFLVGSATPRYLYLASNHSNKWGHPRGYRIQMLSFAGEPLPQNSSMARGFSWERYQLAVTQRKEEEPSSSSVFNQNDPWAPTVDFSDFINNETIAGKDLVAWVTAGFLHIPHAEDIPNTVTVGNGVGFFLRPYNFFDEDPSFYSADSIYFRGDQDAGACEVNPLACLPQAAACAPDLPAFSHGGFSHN
Experimental: A multiple-ascending dose clinical trial of Compound 1 was performed.

[3] = Day 3 after single dose 3 mg (n = 6)
[4] = Day 3 after single dose 10 mg (n = 6)
[5] = Day 3 after single dose 30 mg (n = 6)
[6] = Day 3 after single dose 60 mg (n = 6)

P-glycoprotein (P-gp), sequence (P08183 whole entry): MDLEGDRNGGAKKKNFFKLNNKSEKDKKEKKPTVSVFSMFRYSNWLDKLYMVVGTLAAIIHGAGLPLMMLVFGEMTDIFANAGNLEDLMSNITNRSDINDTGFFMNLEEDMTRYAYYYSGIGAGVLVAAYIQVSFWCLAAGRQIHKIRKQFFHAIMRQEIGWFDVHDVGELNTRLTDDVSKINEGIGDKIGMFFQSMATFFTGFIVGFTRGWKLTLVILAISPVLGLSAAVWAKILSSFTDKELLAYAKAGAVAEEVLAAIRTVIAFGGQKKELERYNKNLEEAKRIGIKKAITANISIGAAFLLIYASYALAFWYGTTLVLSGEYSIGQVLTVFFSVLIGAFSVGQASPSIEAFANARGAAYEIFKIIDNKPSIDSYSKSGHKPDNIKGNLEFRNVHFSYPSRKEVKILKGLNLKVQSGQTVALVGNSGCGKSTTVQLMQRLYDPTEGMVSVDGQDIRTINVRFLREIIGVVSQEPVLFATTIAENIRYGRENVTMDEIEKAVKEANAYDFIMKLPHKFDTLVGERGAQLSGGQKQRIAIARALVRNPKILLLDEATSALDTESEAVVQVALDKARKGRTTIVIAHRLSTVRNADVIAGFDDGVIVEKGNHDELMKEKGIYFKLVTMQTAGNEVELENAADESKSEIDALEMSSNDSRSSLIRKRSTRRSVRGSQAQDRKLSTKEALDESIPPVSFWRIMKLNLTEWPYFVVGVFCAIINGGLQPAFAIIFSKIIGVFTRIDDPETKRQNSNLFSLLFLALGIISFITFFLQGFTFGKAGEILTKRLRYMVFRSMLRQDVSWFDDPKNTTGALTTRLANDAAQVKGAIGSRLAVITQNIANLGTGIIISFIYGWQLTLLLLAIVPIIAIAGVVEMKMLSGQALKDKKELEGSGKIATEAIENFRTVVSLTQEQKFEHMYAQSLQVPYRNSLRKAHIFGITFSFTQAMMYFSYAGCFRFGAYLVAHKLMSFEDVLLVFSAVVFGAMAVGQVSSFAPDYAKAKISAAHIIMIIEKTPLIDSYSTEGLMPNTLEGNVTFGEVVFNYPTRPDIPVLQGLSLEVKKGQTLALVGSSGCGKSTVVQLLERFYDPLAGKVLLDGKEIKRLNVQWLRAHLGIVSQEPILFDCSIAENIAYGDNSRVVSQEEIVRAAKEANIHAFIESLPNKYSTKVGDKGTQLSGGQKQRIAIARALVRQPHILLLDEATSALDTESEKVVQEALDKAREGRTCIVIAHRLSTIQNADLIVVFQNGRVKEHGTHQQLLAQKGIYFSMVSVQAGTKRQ

N#Cc1nn(-c2cc(Cl)c(Oc3n[nH]c(=O)c4ccccc34)c(Cl)c2)c(=O)[nH]c1=O [Compound 2, 2-(3,5-dichloro-4-((4-oxo-3,4-dihydrophthalazin-1-yl)oxy)phenyl)-3,5-dioxo-2,3,4,5-tetrahydro-1,2,4-triazine-6-carbonitrile] was tested, and the “LDL-c, total cholesterol, and Apo-B” value ([1]; Day 3 after single dose) was “Dose-dependent decreases”, the “Apo B LSM % change” value [1, 3] was −2.7% and the “Apo B change from baseline” value [1, 3] was −1.5. For the same compound, the “HDL-c LSM % change” value [1, 3] was 2.4%, the “HDL-c change from baseline” value [1, 3] was 0.87 and the “LDL-c LSM % change” value [1, 3] was −3.1%. The “LDL-c change from baseline” value [1, 3] was −3.98, the “SHBG LSM % change” value [1, 3] was 6.3% and the “SHBG change from baseline” value [1, 3] was 0.20 nmol/L. For the same compound, the “TC LSM % change” value [1, 3] was −0.88%, the “TC change from baseline” value [1, 3] was −1.85 and the “Apo B LSM % change” value [1, 4] was −6.0%. For the same compound, the “Apo B change from baseline” value [1, 4] was −5.6, the “HDL-c LSM % change” value [1, 4] was −1.0% and the “HDL-c change from baseline” value [1, 4] was −1.1. For the same compound, the “LDL-c LSM % change” value [1, 4] was 0.70%, the “LDL-c change from baseline” value [1, 4] was 0.68 and the “SHBG LSM % change” value [1, 4] was 31.3%. The “SHBG change from baseline” value [1, 4] was 15.8 nmol/L, the “TC LSM % change” value [1, 4] was −0.84% and the “TC change from baseline” value [1, 4] was −1.93. The “Apo B LSM % change” value [1, 5] was −11.0%, the “Apo B change from baseline” value [1, 5] was −11.5 and the “HDL-c LSM % change” value [1, 5] was −12.1%. The “HDL-c change from baseline” value [1, 5] was −6.1, the “LDL-c LSM % change” value [1, 5] was −12.5% and the “LDL-c change from baseline” value [1, 5] was −15.7. The “SHBG LSM % change” value [1, 5] was 16.5%, the “SHBG change from baseline” value [1, 5] was 6.0 nmol/L and the “TC LSM % change” value [1, 5] was −11.84%. For the same compound, the “TC change from baseline” value [1, 5] was −24.14, the “Apo B LSM % change” value [1, 6] was −15.75% and the “Apo B change from baseline” value [1, 6] was −13.9. The “SHBG LSM % change” value [1, 6] was 13.8%, the “SHBG change from baseline” value [1, 6] was 5.05 nmol/L and the triglyceride levels ([1]; after a single dose) was “No significant changes”. The “SHBG relative to placebo” value ([1]; single doses of ≥10 mg) was “Significant increases”, the “reduction of serum triglycerides from time 0” value [2] was 30-80% and the “reduction of total cholesterol in the serum” value [2] was 30-70%. It also gave an IC50 (OATP1B1) of 2010 nM.

With Cn1cc(C(=O)O)c2ccc(N3CCC(OCc4c(-c5c(Cl)cccc5Cl)noc4C4CC4)CC3)cc21 [Compound 3] the IC50 (P-glycoprotein (P-gp)) was 3920 nM.

COC1CCN(c2ncc(OC/C(=C/F)CN)cn2)CC1 [Compound 1, (E)-3-fluoro-2-(((2-(4-methoxypiperidin-1-yl)pyrimidin-5-yl)oxy)methyl)prop-2-en-1-amine] was tested, and the “suppression of plasma VAP-1/SSAO-specific amine oxidase activity” value (SSAO; 10 mg, healthy participants (Example 2)) was > 90%, the “inhibition of plasma SSAO activity” value (SSAO; Day 1, all dose cohorts) was “Near complete inhibition” and the plasma methylamine levels (SSAO; first daily dose 1, 4, 10 mg) was “increased in a dose proportional manner”. The “duration of inhibition of plasma SSAO amine oxidase activity after cessation of dosing” value (SSAO; multiple QD doses) was “up to 2 weeks”.
